Assay results reported in ChEMBL document CHEMBL1130664, “Syntheses and antitumor activity of cis-restricted combretastatins: 5-membered heterocyclic analogues” (Bioorg Med Chem Lett, 1998).

Columns and labels:
Colon 26 [1] = assay: In vitro cytotoxicity against colon 26 adenocarcinoma cell line was evaluated.; type: functional, cell-based; conditions: Mus musculus
Tubulin = Tubulin (Bos taurus, UniProt Q6B856+Q862L2+Q862F3); assay: Tubulin polymerization inhibitory activity using bovine brain tubulin; type: functional
Colon 26 [2] = assay: […] activity evaluated as tumor suppression against colon 26 murine tumor model at a dose 40 mg/kg after intravenous administration; type: functional, Mus musculus
Colon 26 [3] = assay: […] activity evaluated as tumor suppression against colon 26 murine tumor model at a dose 5 mg/kg after intravenous administration; type: functional, organism-based; design: dose 5 mg/kg; conditions: Mus musculus
Colon 26 [4] = assay: […] activity evaluated as tumor suppression against colon 26 murine tumor model at a dose 160 mg/kg after intravenous administration; type: functional, Mus musculus
Colon 26 [5] = assay: […] activity evaluated as tumor suppression against colon 26 murine tumor model at a dose 80 mg/kg after intravenous administration; type: functional, Mus musculus
Colon 26 [6] = assay: […] activity evaluated as tumor suppression against colon 26 murine tumor model at a dose 160 mg/kg after subcutaneous administration; type: functional, Mus musculus
Colon 26 [7] = assay: […] activity evaluated as tumor suppression against colon 26 murine tumor model at a dose 20 mg/kg after intravenous administration; type: functional, Mus musculus

| IC50 (Tubulin) [nM] | Molecule | IC50 (Colon 26 [1]) [nM] | also measured |
| --- | --- | --- | --- |
| 1000 | COc1ccc(-c2sc(N)nc2-c2cc(OC)c(OC)c(OC)c2)cc1N | 57.5 | IR (Colon 26 [2]): 75% |
| – | CISPLATIN | – | IR (Colon 26 [3]): 64% |
| > 10000 | COc1ccc(-c2nnc(C)n2-c2cc(OC)c(OC)c(OC)c2)cc1N | > 3000 | – |
| – | COc1ccc(/C=C\c2cc(OC)c(OC)c(OC)c2)cc1N.Cl | 2.8 | IR (Colon 26 [2]): 73% |
| > 10000 | COc1ccc(-c2nnc(N)n2-c2cc(OC)c(OC)c(OC)c2)cc1N | > 3000 | – |
| 2000 | COc1ccc(-c2sc(C)nc2-c2cc(OC)c(OC)c(OC)c2)cc1N | 2040 | IR (Colon 26 [2]): 24% |
| > 10000 | COc1ccc(-c2c([Si](C)(C)C)n[nH]c2-c2cc(OC)c(OC)c(OC)c2)cc1N | > 3000 | – |
| 4000 | COc1ccc(-c2nncn2-c2cc(OC)c(OC)c(OC)c2)cc1N | 840 | IR (Colon 26 [4]): 47% |
| 3000 | COc1ccc(-c2sc(NN)nc2-c2cc(OC)c(OC)c(OC)c2)cc1N | 21.1 | IR (Colon 26 [5]): 55% |
| 3000 | COc1ccc(-c2c[nH]nc2-c2cc(OC)c(OC)c(OC)c2)cc1N | 8.4 | IR (Colon 26 [7]): 0% |
| > 10000 | COc1ccc(-c2nnc(O)n2-c2cc(OC)c(OC)c(OC)c2)cc1N | > 3000 | – |
| 3000 | COc1ccc(-c2scnc2-c2cc(OC)c(OC)c(OC)c2)cc1N | 14.5 | IR (Colon 26 [4]): 66% |

| Molecule | IC50 (Tubulin) [nM] | IC50 (Colon 26 [1]) [nM] | also measured |
| --- | --- | --- | --- |
| COc1ccc(-c2nnnn2-c2cc(OC)c(OC)c(OC)c2)cc1N | 2000 | 7.2 | IR (Colon 26 [6]): 89% |
